Measured values from PMC7774954, “Interactomic affinity profiling by holdup assay: Acetylation and distal residues impact the PDZome-binding specificity of PTEN phosphatase” (PLoS ONE, 2020).
*1 amine or outer side, *2 acyl side, *3 side chain or, on linkers, in order; H or OH if unused. Where a SMILES comes first, the peptide text is derived from it. The star is where a group is joined. X1 = O=C(CCCC[C@@H]1SC[C@@H]2NC(=O)N[C@@H]21)NCCCOCCOCCOCCCN*; Suc = O=C(CCC(=O)[*:2])[*:1]

Target: LNX1-4 (Homo sapiens, UniProt Q8TBB1)
Assay: Holdup assay, LNX1-4
Format: binding

LNX1-4, sequence (Q8TBB1 638-723): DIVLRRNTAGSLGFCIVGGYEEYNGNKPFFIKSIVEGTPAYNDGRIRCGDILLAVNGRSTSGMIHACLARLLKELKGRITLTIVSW

CC[C@H](C)[C@H](NC(=O)[C@H](CCC(N)=O)NC(=O)[C@@H](NC(=O)[C@H](Cc1c[nH]cn1)NC(=O)[C@H](CCC(N)=O)NC(=O)[C@H](CC(=O)O)NC(=O)[C@H](CCC(=O)O)NC(=O)[C@H](CC(=O)O)NC(=O)[C@H](Cc1ccccc1)NC(=O)[C@@H]1CCCN1C(=O)CCC(=O)NCCCOCCOCCOCCCNC(=O)CCCC[C@@H]1SC[C@@H]2NC(=O)N[C@@H]21)[C@@H](C)O)C(=O)N[C@H](C(=O)N[C@@H](CCCCN)C(=O)N[C@H](C(=O)O)C(C)C)[C@@H](C)O [PTEN_13] ({X1-Suc}-PFDEDQHTQITKV-OH)
BI: 0.378
Kd: 25.5 µM
